Source: ChEMBL document CHEMBL5137131, “Mechanisms of Biochanin A Alleviating PM2.5 Organic Extracts-Induced EMT of A549 Cells through the PI3K/Akt Pathway” (J Nat Prod, 2022)
Active and inactive are the calls of the source. The calls are words filed in the database; no cut-off is given here.

Legend:
[1] = test system: A549; assay: Inhibition of PM2.5 induced TGF-beta1 secretion in human A549 cells at 30 uM by ELISA relative to control; type: functional
[2] = test system: A549; assay: Inhibition of PM2.5 induced TGF-beta1 secretion in human A549 cells at 10 uM by ELISA relative to control; type: functional
[3] = test system: A549; assay: Inhibition of cell migration in PM2.5 induced human A549 assessed as relative migration length at 10 uM incubated for 24 hr by wound healing assay (reference value: 0.363 micrometer); type: functional
[4] = test system: A549; assay: Inhibition of cell migration in PM2.5 induced human A549 assessed as scratch migration length at 20 uM incubated for 0 hr by wound healing assay (reference value: 2.120 +/- 0.132 micrometer); type: functional
[5] = test system: A549; assay: Upregulation of PM2.5 induced E-cadherin expression in human A549 cells at 30 uM by Western blot analysis; type: functional, cell-based
[6] = test system: A549; assay: Downregulation of PM2.5 induced vimentin mRNA expression in human A549 cells at 20 uM by qRT-PCR analysis relative to control; type: functional
[7] = test system: A549; assay: Downregulation of PM2.5 induced fibronectin mRNA level in human A549 cells at 10 uM by qRT-PCR analysis; type: functional, cell-based
[8] = test system: A549; assay: Inhibition of cell migration in PM2.5 induced human A549 assessed as relative migration length at 30 uM incubated for 24 hr by wound healing assay (reference value: 0.363 micrometer); type: functional
[9] = test system: A549; assay: Downregulation of PM2.5 induced MMP-9 activation in human A549 cells at 10 uM by ELISA; type: functional, cell-based
[10] = test system: A549; assay: Inhibition of cell migration in PM2.5 induced human A549 assessed as scratch migration length at 20 uM incubated for 24 hr by wound healing assay (reference value: 1.757 +/- 0.094 micrometer); type: functional
[11] = test system: A549; assay: Upregulation of PM2.5 induced E-cadherin mRNA expression in human A549 cells at 10 uM by qRT-PCR analysis; type: functional, cell-based
[12] = test system: A549; assay: Protection against PM2.5 induced human A549 cells injury assessed as reduction in PM2.5 induced cell proliferation inhibition at 10 to 30 uM measured at 24 hrs by CCK-8 analysis; type: functional, cell-based; settings: dose 10-30 µM
[13] = test system: A549; assay: Protection against PM2.5 induced human A549 cells morphological change assessed as reduction in number of mesenchymal morphogenetic cells at 10 to 30 uM measured after 48 hrs by microscopic analysis; type: functional, cell-based; settings: dose 10-30 µM
[14] = test system: A549; assay: Downregulation of PM2.5 induced N-cadherin mRNA level in human A549 cells at 20 uM by qRT-PCR analysis relative to control; type: functional
[15] = test system: A549; assay: Downregulation of PM2.5 induced N-cadherin mRNA level in human A549 cells at 10 uM by qRT-PCR analysis relative to control; type: functional
[16] = test system: A549; assay: Downregulation of PM2.5 induced MMP-2 activation in human A549 cells at 10 uM by ELISA; type: functional, cell-based
[17] = test system: A549; assay: Downregulation of PM2.5 induced fibronectin mRNA level in human A549 cells at 30 uM by qRT-PCR analysis; type: functional, cell-based
[18] = test system: A549; assay: Inhibition of cell migration in PM2.5 induced human A549 assessed as relative migration length at 20 uM incubated for 24 hr by wound healing assay (reference value: 0.363 micrometer); type: functional
[19] = test system: A549; assay: Inhibition of PM2.5 induced PI3K expression in human A549 cells at 10 to 30 uM by qRT-PCR analysis; type: functional, cell-based; settings: dose 10-30 µM
[20] = test system: A549; assay: Downregulation of PM2.5 induced vimentin mRNA expression in human A549 cells at 30 uM by qRT-PCR analysis relative to control; type: functional
[21] = target: Serine/threonine-protein kinase AKT (Homo sapiens) (UniProt P31751+Q9Y243+P31749); assay: Inhibition of PM2.5 induced Akt phosphorylation upregulation in human A549 cells at 10 uM by Western blot analysis relative to control; type: cell-based
[22] = test system: A549; assay: Inhibition of PM2.5 induced PI3K/Akt activation assessed as inhibition of Twist expression in human A549 cells at 10 to 20 uM; type: cell-based; settings: dose 10-20 µM
[23] = test system: A549; assay: Inhibition of cell invasion in PM2.5 induced human A549 cells assessed as number of cell perforation at 20 uM measured after 24 hrs by Giemsa staining based transwell assay (reference value: 93 +/- 4.04%); type: functional; design: scale not given: the % may be the effect or the level left
[24] = test system: A549; assay: Inhibition of cell invasion in PM2.5 induced human A549 cells assessed as reduction in cell invasiveness at 20 uM measured after 24 hrs by Giemsa staining based transwell assay relative to control; type: functional; design: scale not given: the % may be the effect or the level left
[25] = test system: A549; assay: Downregulation of PM2.5 induced CXCL12 expression in human A549 cells at 20 uM by ELISA relative to control; type: functional
[26] = test system: A549; assay: Inhibition of cell migration in PM2.5 induced human A549 assessed as scratch migration length at 10 uM incubated for 0 hr by wound healing assay (reference value: 2.120 +/- 0.132 micrometer); type: functional

Sequence of Serine/threonine-protein kinase AKT (Homo sapiens) (P31749 whole entry, looked up): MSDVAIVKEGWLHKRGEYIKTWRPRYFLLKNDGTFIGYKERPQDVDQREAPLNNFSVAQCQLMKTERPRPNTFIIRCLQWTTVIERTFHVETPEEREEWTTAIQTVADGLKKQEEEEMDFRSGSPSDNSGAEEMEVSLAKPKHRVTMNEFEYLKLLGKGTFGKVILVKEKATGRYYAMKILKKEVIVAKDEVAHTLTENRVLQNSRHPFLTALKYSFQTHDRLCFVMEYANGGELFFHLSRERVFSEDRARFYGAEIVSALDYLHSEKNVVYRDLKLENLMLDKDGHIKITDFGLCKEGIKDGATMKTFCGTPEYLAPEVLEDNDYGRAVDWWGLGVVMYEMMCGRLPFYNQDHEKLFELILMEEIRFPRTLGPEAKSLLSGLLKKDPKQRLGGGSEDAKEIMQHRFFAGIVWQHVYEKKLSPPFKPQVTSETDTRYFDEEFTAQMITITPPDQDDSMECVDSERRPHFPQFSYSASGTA
Sequence of Serine/threonine-protein kinase AKT (Homo sapiens) (P31751 whole entry, looked up): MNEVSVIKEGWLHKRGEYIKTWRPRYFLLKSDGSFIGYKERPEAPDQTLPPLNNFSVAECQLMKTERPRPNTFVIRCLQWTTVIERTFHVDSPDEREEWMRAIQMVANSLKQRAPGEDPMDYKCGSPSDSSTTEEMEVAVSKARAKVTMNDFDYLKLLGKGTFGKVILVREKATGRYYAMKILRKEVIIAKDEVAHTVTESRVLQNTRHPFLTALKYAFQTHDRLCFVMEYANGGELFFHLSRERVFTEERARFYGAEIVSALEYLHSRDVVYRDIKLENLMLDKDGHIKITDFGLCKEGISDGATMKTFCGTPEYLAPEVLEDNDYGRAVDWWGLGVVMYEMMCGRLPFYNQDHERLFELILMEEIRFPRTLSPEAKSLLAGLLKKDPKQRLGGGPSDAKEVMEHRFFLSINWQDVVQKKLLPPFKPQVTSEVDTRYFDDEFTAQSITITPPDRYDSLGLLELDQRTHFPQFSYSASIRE
Sequence of Serine/threonine-protein kinase AKT (Homo sapiens) (Q9Y243 whole entry, looked up): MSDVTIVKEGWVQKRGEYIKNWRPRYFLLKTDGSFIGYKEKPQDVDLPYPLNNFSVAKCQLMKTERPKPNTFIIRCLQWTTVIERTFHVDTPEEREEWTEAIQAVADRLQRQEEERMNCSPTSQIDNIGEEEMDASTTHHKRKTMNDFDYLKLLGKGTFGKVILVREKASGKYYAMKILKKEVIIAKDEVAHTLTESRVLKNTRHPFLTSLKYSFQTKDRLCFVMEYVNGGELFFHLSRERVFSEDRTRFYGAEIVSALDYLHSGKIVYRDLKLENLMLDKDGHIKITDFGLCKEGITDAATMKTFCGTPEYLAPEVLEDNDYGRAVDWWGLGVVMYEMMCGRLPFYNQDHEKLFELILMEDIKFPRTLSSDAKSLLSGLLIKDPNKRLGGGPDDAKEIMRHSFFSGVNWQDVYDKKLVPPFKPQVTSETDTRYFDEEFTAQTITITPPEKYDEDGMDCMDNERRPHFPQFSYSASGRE

Molecule `COc1ccc(-c2coc3cc(O)cc(O)c3c2=O)cc1` [BIOCHANIN] has an inhibition at 30 µM [1] of 24.8%, an inhibition at 10 µM [2] of 16.2% and an Activity [3] of 0.405 um. The Activity [4] was 1.932 um, the Activity [5] was “Active” and the Activity [6] was 48%. For the same molecule, the Activity [7] was “Active”, the Activity [8] was 0.302 um and the Activity [9] was “Active”. The Activity [10] was 1.451 um, the Activity [11] was “Active” and the Activity [12] was “Active”. For the same molecule, the Activity [13] was “Active”, the Activity [14] was 79% and the Activity [15] was 67%. For the same molecule, the Activity [16] was “Active”, the Activity [17] was “Active” and the Activity [18] was 0.481 um. For the same molecule, the inhibition [19] was “Active”, the Activity [20] was 78% and the inhibition [21] was 30%. The inhibition [22] was “Active”, the Activity [23] was 61.3% and the Activity [24] was 34.09%. For the same molecule, the Activity [25] was 20% and the Activity [26] was 1.973 um.
